# Reference: patent US8455466B2, “Vitamin d analogues, compositions comprising said analogues and their use” (Leo Pharma A/S, priority 2002, dated 2013)
# Tests used:
# [1] = system: rats; assay: In vivo calcemic activity in rats (Binderup et al.); set-up: species or system rat; details: Calcitriol = 100%
# [2] = system: bovine parathyroidea cells; assay: In vitro PTH secretion in bovine parathyroidea cells; type: cell-based; details: cells treated with vitamin D analogues for 60 hours at 37° C.
# Procedure: The calcemic activities of the compounds of the present invention were determined in rats in vivo, as previously described (Binderup, L., Bramm, E., Biochem. Pharmacol. 37, 889-895 (1988)). The PTH suppressive effect of the compounds of the present invention was tested in vitro on bovine parathyroidea cells: Fresh bovine parathyroid glands were collected from adult cattle within 20 min of slaughter. From minced parathyroid tissue dispersed parathyroid cells were prepared as previously described (E. M. Brown, S. Hurwitz and G. D Aurbach; Preparation of viable isolated bovine parathyroid cells; Endocrinology, 1976, vol 99, no 6, 1582-1588). Then, the cells were treated with vitamin D analogues for 60 hours at 37° C. and the PTH secretion was determined.
# [3] = system: secretion of PTH; details: patients; 1α(OH)D3 versus 1,25(OH)2 D3 administered; cited from earlier work
"In vivo calcemic activity relative to Calcitriol (1,25(OH)2D3) [1]",Compound,In vitro PTH secretion relative to untreated bovine parathyroidea cells (untreated cells as control = 100%) [2] [%],"suppression of the secretion of PTH, compared with 1,25(OH)2 D3 dosing [3]"
1%,"1(S),3(R)-Dihydroxy-9,10-seco-26,27-methano-cholesta-5(Z),7(E),10(19),22(E),24-penta-ene [Compound 6]",56,–
<0.5% ^,"C=C1C(=CC=C2CCCC3(C)C2CCC3C(C)C=CC=C(Br)Br)CC(O)CC1O [Compound 27, 1(S),3(R)-Dihydroxy-20(R)-(4,4-dibromo-1,3-butadien-1-yl)-9,10-seco-pregna-5(Z),7(E),10(19)-triene]",65,–
1%,"C=C1/C(=C\C=C2/CCC[C@]3(C)[C@@H]([C@H](C)/C=C/C=C(CC)CC)CC[C@@H]23)C[C@@H](O)C[C@@H]1O [Compound 28, 1(S),3(R)-Dihydroxy-26,27-dimethyl-9,10-secocholesta-5(Z),7(E),10(19),22(E),24-penta-ene]",62,–
100%,"C=C1/C(=C\C=C2/CCC[C@]3(C)[C@@H]([C@H](C)CCCC(C)(C)O)CC[C@@H]23)C[C@@H](O)C[C@@H]1O [Calcitriol, 1,25(OH)2D3, reference compound]",60,–

# The next lines start with the compound.
Compound,"In vivo calcemic activity relative to Calcitriol (1,25(OH)2D3) [1]",In vitro PTH secretion relative to untreated bovine parathyroidea cells (untreated cells as control = 100%) [2] [%],"suppression of the secretion of PTH, compared with 1,25(OH)2 D3 dosing [3]"
"C=C1C(=CC=C2CCCC3(C)C2CCC3C(C)C=CC=C(C)C)CC(O)CC1O [Compound 3, 1(S),3(R)-Dihydroxy-9,10-seco-20(S)-cholesta-5(Z),7(E),10(19), 22(E),24-penta-ene]",1%,61,–
"C=C1C(=CC=C2CCCC3(C)C2CCC3C(C)C=CC=C(C(F)(F)F)C(F)(F)F)CC(O)CC1O [Compound 25, 1(S),3(R)-Dihydroxy-26,26,26,27,27,27-hexafluoro-9,10-secocholesta-5(Z),7(E),10(19),22(E),24-penta-ene]",8%,74,–
"1(S),3(R)-Dihydroxy-9,10-seco-26,27-methano-20(S)-cholesta-5(Z),7(E),10(19),22(E),24-penta-ene [Compound 7]",<0.5% ^,65,–
"C=C1C(=CC=C2CCCC3(C)C2CCC3C(C)C=CC=C(C)C)CC(O)CC1O [Compound 1, 1(S),3(R)-Dihydroxy-9,10-secocholesta-5(Z),7(E),10(19),22(E),24-penta-ene]",<10% ^,57,–
C=C1/C(=C\C=C2/CCC[C@]3(C)[C@@H]([C@H](C)CCCC(C)C)CC[C@@H]23)C[C@@H](O)C[C@@H]1O [1α(OH)D3],–,–,no significant difference
